Measurements reported in patent publication US20020155519A1 (priority 1997, published 2002).
Entries after “also recorded” stand apart in the source; their conditions may differ. Read-outs that look alike come from different tables or passages of the source.

What was measured:
HBB = assay type: in vivo, human; details: uncontrolled patient trials
Protocol: Experiments have been conducted investigating the correlation of the presence of or increased presence of HBB with the clinical symptoms of three autoimmune diseases, and the results of instituting an antibiotic regimen in patients. […] All patients were cultured repeatedly to determine levels of HBB. The antibiotic treatment regimen was based on antibiotic sensitivities done on a pilot series of cultures and on the known properties of the organism, which clearly requires long-term, continuous treatment to address its very slow growth rate. This approach differs from usual treatment regimens for other bacterial infections. Neither the subjects nor the investigators were blind, and there was no untreated or placebo-treated control group.
Antibiotic treatment consisted of one or more of the following three antibiotic regimens: (1) penicillin V, 500 mg four times a day, plus probenecid, 500 mg four times a day, plus Augmentin 500 mg four times a day; (2) ciprofloxacin, 500 mg three times a day; or (3) isoniazid, 100 mg three times a day. Most patients received a combination of two of the regimens concurrently.
A regime or schedule is continued to optimize effectiveness, balanced against negative effects of treatment.

[1] = system: human blood bacterium (HBB); experiment: Resistance of HBB to detergents and disinfectants; assay type: cell-based; details: for resistance of HBB to detergent (lysis): 0.1%
[2] = system: human blood bacterium (HBB); assay type: cell-based
Protocol: Normally 1 ml of serum was added to 9 ml of medium. Larger flasks with a proportionately larger amount of serum and medium are used to produce bacteria in quantity. Modulators might be added to some flasks in 10× or higher concentration (corresponding to addition of 1 ml or less). When examining the effect of modulators, control flasks were prepared similarly without the addition of the modulator. Levels were observed microscopically (inverted phase microscope, observing the number of organisms per field crudely or by actual count) after incubation, typically at several points in time.
When multiple comparisons were done at once, they were done in 12 well or 24 well cell culture plates, most often the latter. With the latter, typically 1 ml of medium inoculated with serum is added to each well, with modulators added at 10× or higher concentration (0.1 ml or less). When comparisons are done in well plates, control wells without any additions are included. Levels were observed microscopically (inverted phase microscope) after incubation, typically at several points in time. The well plate cultures were also used for antibiotic sensitivity testing.
These procedures are those known in the art and include uses of antibodies and DNA probes, Western and Southern blots, PCR and the diagnostic kits therefor. First, organisms can be quantified by culture. […] If a means is found to immobilize the bacteria to grow isolated colonies, counts will be more accurate. Quantification is used to follow the progress of treatment and to correlate HBB levels with specific disease syndromes. Quantification is used also for antibiotic sensitivity measurements, comparing the level of growth with antibiotic treatment to the level of growth without treatment. Such antibiotic sensitivity measurements establish the basis for the clinical choice of antibiotic drugs.

yeast-like forms of HBB = experiment: Suppression of yeast-like forms of HBB by antifungal agents; assay type: cell-based, human blood bacterium (HBB)
[3] = system: extracellular exudate and the bacteria (HBB); experiment: Lectin binding to HBB exudate (slime) and bacteria; set-up: species or system human blood bacterium (HBB)
From the text: The amount of the exudate produced is strongly influenced by or dependent upon the composition of the culture medium. The current medium formulae (L and O) have been designed to reduce slime production. In the original, crude medium, a centrifuged culture may consist of more than 10% of this gel by volume. In the L and O media, older cultures of HBB may develop a thin layer of gel that traps the cells and makes them adherent to the culture flask.

Molecule: Cc1onc(-c2c(Cl)cccc2Cl)c1C(=O)N[C@@H]1C(=O)N2[C@@H]1SC(C)(C)[C@@H]2C(=O)O [dicloxacillin]
- clinical response in patients (in words) (HBB): A few patients have done better

Molecule: Oc1c(Cl)cc(Cl)c(Cl)c1Cc1c(O)c(Cl)cc(Cl)c1Cl [hexachlorophene]
- resistance of HBB to disinfectant [1]: resistant

Molecule: penicillin
- clinical response in patients (in words) (HBB): not effective for a sustained response in most patients; also recorded: short-term response in many

Molecule: O=C([O-])c1ccccc1.[Na+] [sodium benzoate]
- observed antibiotic and antifungal sensitivities (outcome, number of isolates) ([2]; 50 μg/ml): no effect (1 effect)
- suppression of yeast-like forms (yeast-like forms of HBB): no suppression

Molecule: CCC(=O)[O-].[Na+] [sodium propionate]
- observed antibiotic and antifungal sensitivities (outcome, number of isolates) ([2]; 50-250 μg/ml): no effect (2 isolates)
- suppression of yeast-like forms (yeast-like forms of HBB): no suppression

Molecule: wheat germ agglutinin
- binding of lectin to exudate and bacteria [3]: bind

Molecule: NCC[C@H](O)C(=O)N[C@@H]1C[C@H](N)[C@@H](O[C@H]2O[C@H](CN)[C@@H](O)[C@H](O)[C@H]2O)[C@H](O)[C@H]1O[C@H]1O[C@H](CO)[C@@H](O)[C@H](N)[C@H]1O [amikacin]
- observed antibiotic and antifungal sensitivities (outcome, number of isolates) ([2]; 2 μg/ml): no effect (1 isolate)

Molecule: amphoptericin
- observed antibiotic and antifungal sensitivities (outcome, number of isolates) ([2]; 0.25 μg/ml): no effect (1 isolate)
- suppression of yeast-like forms (yeast-like forms of HBB): no suppression

Molecule: Clc1ccc(COC(Cn2ccnc2)c2ccc(Cl)cc2Cl)c(Cl)c1 (stereo not drawn) [miconazol]
- observed antibiotic and antifungal sensitivities (outcome, number of isolates) [2]: no effect (1 isolate)
- suppression of yeast-like forms (yeast-like forms of HBB): no suppression

Molecule: CN[C@H](CC(C)C)C(=O)N[C@H]1C(=O)N[C@@H](CC(N)=O)C(=O)N[C@H]2C(=O)N[C@H]3C(=O)N[C@H](C(=O)N[C@H](C(=O)O)c4cc(O)cc(O)c4-c4cc3ccc4O)[C@H](O)c3ccc(c(Cl)c3)Oc3cc2cc(c3O[C@@H]2O[C@H](CO)[C@@H](O)[C@H](O)[C@H]2O[C@H]2C[C@](C)(N)[C@H](O)[C@H](C)O2)Oc2ccc(cc2Cl)[C@H]1O [vancomycin]
- observed antibiotic and antifungal sensitivities (outcome, number of isolates) [2]: no effect (1 isolate)

Molecule: CCN(CC)CCCC(C)Nc1ccnc2cc(Cl)ccc12 (stereo not drawn) [chloroquin]
- antibiotic sensitivity of HBB strains/isolates in culture ([2]; concentration not printed): synergistic effect with a few isolates

Molecule: COc1cc(Cc2cnc(N)nc2N)cc(OC)c1OC [trimethoprim]
- antibiotic sensitivity of HBB strains/isolates in culture [2]: resistance
- observed antibiotic and antifungal sensitivities (outcome, number of isolates) [2]: no effect (1 isolate)

Molecule: CCCCCCCCCCCCOS(=O)(=O)[O-].[Na+] [SDS]
- resistance of HBB to detergent (lysis) [1]: does cause lysis

Molecule: CCn1cc(C(=O)O)c(=O)c2ccc(C)nc21 [nalidixic acid]
- observed antibiotic and antifungal sensitivities (outcome, number of isolates) ([2]; 4 μg/ml): no effect (1 isolate)

Molecule: Cc1onc(-c2ccccc2)c1C(=O)N[C@@H]1C(=O)N2[C@@H]1SC(C)(C)[C@@H]2C(=O)O [oxacillin]
- antibiotic sensitivity of HBB strains/isolates in culture [2]: occasional isolates show higher sensitivity

Molecule: CC1(C)S[C@@H]2[C@H](NC(=O)Cc3ccccc3)C(=O)N2[C@H]1C(=O)O [penicillin G]
- antibiotic sensitivity of HBB strains/isolates in culture ([2]; concentration not printed): relatively sensitive

Molecule: CC[C@H]1OC(=O)[C@H](C)[C@@H](O[C@H]2C[C@@](C)(OC)[C@@H](O)[C@H](C)O2)[C@H](C)[C@@H](O[C@@H]2O[C@H](C)C[C@H](N(C)C)[C@H]2O)[C@](C)(OC)C[C@@H](C)C(=O)[C@H](C)[C@@H](O)[C@]1(C)O [clarithromycin]
- antibiotic sensitivity of HBB strains/isolates in culture ([2]; concentration not printed): some strains show sensitivity; also recorded: often stimulate growth
- antibiotic sensitivity of HBB strains/isolates in culture ([2]; concentration not printed, listed as Clarithromycin): appears more effective in culture

Molecule: CC[C@H]1OC(=O)[C@H](C)[C@@H](O[C@H]2C[C@@](C)(OC)[C@@H](O)[C@H](C)O2)[C@H](C)[C@@H](O[C@@H]2O[C@H](C)C[C@H](N(C)C)[C@H]2O)[C@](C)(O)C[C@@H](C)C(=O)[C@H](C)[C@@H](O)[C@]1(C)O [erythromycin]
- antibiotic sensitivity of HBB strains/isolates in culture [2]: resistant

Molecule: Nc1ccc(O)c(C(=O)O)c1 [5-aminosalicylic acid]
- observed antibiotic and antifungal sensitivities (outcome, number of isolates) ([2]; 20 μg/ml): no effect (4 isolates)

Molecule: CCCCCCCCCCCCN(C)CC(=O)O [n-laurylsarcosine]
- resistance of HBB to detergent (lysis) [1]: resist

Molecule: C[C@@H]1[C@H](O)[C@@H](C)/C=C/C=C/CC/C=C/C=C/C=C/C=C/C(O[C@H]2O[C@H](C)[C@@H](O)[C@H](N)[C@@H]2O)CC2O[C@](O)(CC(O)C(O)CCC(O)CC(O)CC(O)CC(=O)O[C@H]1C)CC(O)C2C(=O)O (stereo partly drawn) [nystatin]
- observed antibiotic and antifungal sensitivities (outcome, number of isolates) ([2]; saturated): no effect (1 isolate)
- suppression of yeast-like forms (yeast-like forms of HBB): no suppression

Molecule: CCN(CCO)CCCC(C)Nc1ccnc2cc(Cl)ccc12 (stereo not drawn) [hydroxychloroquin]
- antibiotic sensitivity of HBB strains/isolates in culture ([2]; concentration not printed): synergistic effect with a few isolates

Molecule: CCN(CC)CCCC(C)Nc1c2ccc(Cl)cc2nc2ccc(OC)cc12 (stereo not drawn) [quinacrine]
- observed antibiotic and antifungal sensitivities (outcome, number of isolates) [2]: no effect (1 isolate)

Molecule: Nc1ccc(S(=O)(=O)Nc2ccccn2)cc1 [sulfapyridine]
- observed antibiotic and antifungal sensitivities (outcome, number of isolates) [2]: no effect (6 isolates); also recorded: no effect (1 isolate)

Molecule: O=C(O)c1cn(C2CC2)c2cc(N3CCNCC3)c(F)cc2c1=O [ciprofloxacin]
- antibiotic sensitivity of HBB strains/isolates in culture [2]: Some strains are sensitive
- observed antibiotic and antifungal sensitivities (outcome, number of isolates) [2]: no effect (5 isolates); also recorded: partially sensitive (1 isolate)

Molecule: Tween-20
- resistance of HBB to detergent (lysis) [1]: resist

Molecule: CC1=C(C(=O)O)N2C(=O)[C@@H](NC(=O)[C@H](N)c3ccc(O)cc3)[C@H]2SC1 [cefadroxil]
- observed antibiotic and antifungal sensitivities (outcome, number of isolates) [2]: no effect (1 isolate)

Molecule: Triton X
- resistance of HBB to detergent (lysis) [1]: resist

Molecule: CCCCCCCCCCC(=O)[O-].[Na+] [sodium undecylate]
- observed antibiotic and antifungal sensitivities (outcome, number of isolates) ([2]; 50 μg/ml): no effect (1 isolate)
- suppression of yeast-like forms (yeast-like forms of HBB): no suppression

Molecule: NP-40
- resistance of HBB to detergent (lysis) [1]: resist

Molecule: Cc1cccc(N(C)C(=S)Oc2ccc3ccccc3c2)c1 [tolnaftate]
- observed antibiotic and antifungal sensitivities (outcome, number of isolates) ([2]; 2 μg/ml): no effect (1 isolate)

Molecule: Clc1ccccc1C(c1ccccc1)(c1ccccc1)n1ccnc1 [clotrimazol]
- observed antibiotic and antifungal sensitivities (outcome, number of isolates) [2]: no effect (1 isolate)
- suppression of yeast-like forms (yeast-like forms of HBB): no suppression

Molecule: benzalkonium chloride
- resistance of HBB to disinfectant ([1]; 1:1000): resistant

Molecule: O=C(O)c1cc(/N=N/c2ccc(S(=O)(=O)Nc3ccccn3)cc2)ccc1O [sulfasalazine]
- observed antibiotic and antifungal sensitivities (outcome, number of isolates) [2]: no effect (6 isolates); also recorded: no effect (isolate)

Molecule: Cc1cc(NS(=O)(=O)c2ccc(N)cc2)no1 [sulfamethoxazole]
- antibiotic sensitivity of HBB strains/isolates in culture [2]: no effect (1 isolate)

Molecule: COc1cc(NC(C)CCCN)c2ncccc2c1 (stereo not drawn) [primaquine]
- observed antibiotic and antifungal sensitivities (outcome, number of isolates) [2]: no effect (31 isolates); also recorded: sensitive (15 isolates); also recorded: growth stimulated (1 isolate)

Molecule: CC1(C)S[C@@H]2[C@H](NC(=O)[C@H](N)c3ccc(O)cc3)C(=O)N2[C@H]1C(=O)O [amoxicillin]
- antibiotic sensitivity of HBB strains/isolates in culture [2]: less sensitivity

B1: peanut agglutinin: lectin binding other sugars (protein, UniProt P02872 24-273, looked up)
Galactose-binding lectin: AETVSFNFNSFSEGNPAINFQGDVTVLSNGNIQLTNLNKVNSVGRVLYAMPVRIWSSATGNVASFLTSFSFEMKDIKDYDPADGIIFFIAPEDTQIPAGSIGGGTLGVSDTKGAGHFVGVEFDTYSNSEYNDPPTDHVGIDVNSVDSVKTVPWNSVSGAVVKVTVIYDSSTKTLSVAVTNDNGDITTIAQVVDLKAKLPERVKFGFSASGSLGGRQIHLIRSWSFTSTLITTTRRSIDNNEKKIMNMASA
- binding of lectin to exudate and bacteria [3]: do not appear to bind
